Test system: 777334-354-R2-J4-PDC tumor spheroids with HUVEC/MSC, viability
Experiment: Anticancer human tumor 777334-354-R2-J4-PDC patient-derived pancreatic adenocarcinoma cell line growth inhibition [GQUAD]
Conditions: for IC50: curve of first compound; for viability, T/C: stronger effect = lower value
Source text: DNA G-quadruplex Stabilizer Agents in Combinations in Complex Spheroids
A high-throughput screen of multi-cell type tumor spheroids was designed to identify active combinations of DNA G-quadruplex stabilizer agents and targeted small molecules. Complex spheroids include a stromal component modeled by human endothelial cells (HUVEC) and fibroblasts modeled by human mesenchymal stem cells (MSCs). The concentration ranges selected for each drug and investigational agent were based upon clinically achievable concentrations if the clinical Cmax of the agent was known.
Compounds. The drugs and investigational agents: pidnarulex (CX-5461; NSC782164), APTO-253 (NSC789042), BRACO-19 (NSC847499), peposertib (NSC802822), ceralasertib (NSC780249), elimusertib (NSC800525), camonsertib (NSC841442), AZD-1390 (NSC803789), olaparib (NSC753686), talazoparib (NSC767125), ART-558 (NSC835418), sotorasib (NSC818433), MRTX-1133 (NSC836407), SN-38 (NSC673596), topotecan (NSC609699), etoposide (NSC141540), doxorubicin (NSC123127), gemcitabine (NSC613327), 5-fluorouracil (NSC19893), paclitaxel (NSC125973), vemurafenib (NSC761431), panobinostat (NSC761190), R-306465 (JNJ-16241199; NSC773264), adavosertib (NSC754352), TP-3654 (NSC805149), carboplatin (NSC241240), KSQ-4279 (NSC840948), and staurosporine (NSC755774) were obtained from the National Cancer Institute (NCI) Developmental Therapeutics Program Chemical Repository (34). The FDA-approved anticancer drug set is available from the NCI Developmental Therapeutics Program. […] The stock solutions were prepared in dimethyl sulfoxide (DMSO, Sigma-Aldrich, St. Louis, MO, cat. D2650) at 800-fold the tested concentration and stored at -70 degrees C prior to their use. All drugs and investigational agents were tested over a range starting from a high concentration at or near the clinical Cmax and decreasing in half-log increments. If the clinical Cmax for an agent had not been determined, the highest concentration tested was 10 microM.
2.3 Cell Culture. All cells were maintained in an incubator at 37 degrees C and 5% CO2 with 95% humidity. The PDC lines were cultured according to standard operating procedures established by the NCI PDMR. All PDCs were thawed and cultured in Matrigel-coated flasks prepared with a working solution of 1X Ham's F-12 nutrient mix, without supplementation (Invitrogen, cat. 11765054), 100 U/mL penicillin-streptomycin (Invitrogen, cat. 15140122), and 2.5% Matrigel (Corning Inc., cat. 354248) for the first three passages. The 857933-349-R-J2-PDC line was cultured in 6C/Colon 1B media, which includes advanced DMEM/F-12 (Thermo Fisher Scientific, cat. 12634028), 10 mM HEPES (Thermo Fisher Scientific, cat. 15630080), 1X GlutaMAX supplement (Thermo Fisher Scientific, cat. 35050061), 0.1 mg/mL primocin (InvivoGen, cat. ant-pm-2), 10% defined fetal bovine serum, heat inactivated (HyClone Laboratories Inc., cat. SH30070.03HI), 50% L-WRN conditioned media (ATCC, cat. CRL-3276), 1.25 mM N-Acetyl-L-cysteine (Sigma-Aldrich, cat. A9165), 10 mM nicotinamide (Sigma-Aldrich, cat. N0636), 1X B-27 supplement (Thermo Fisher Scientific, cat. 17504044), 1X N-2 supplement (Thermo Fisher Scientific, cat. 17502048), 10 microM Y-27632 dihydrochloride (Tocris Bioscience, cat. 1254), and 50 ng/mL human EGF recombinant protein (Thermo Fisher Scientific, cat. PHG0311). The 485176-168-R4-J1-PDC line was cultured in Panc media, which includes all 6C/Colon 1B media components plus 100 ng/mL human FGF-10 (Thermo Fisher Scientific, cat. 100-26), 500 nM SB-431542 (Selleckchem, cat. S1067), and gastrin (Tocris, cat. 3006).
[…]
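Note: spheroids exposed to compounds for 7 days before readout.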

SMILES: Cc1[nH]c2ccccc2c1CCNCc1ccc(/C=C/C(=O)NO)cc1 + CN(C)c1ccc(Nc2c3ccc(NC(=O)CCN4CCCC4)cc3nc3cc(NC(=O)CCN4CCCC4)ccc23)cc1
- IC50 (second compound 0.0316 µM): 202 nM
- IC50 (second compound 0.1 µM): 185 nM
- IC50 (second compound 0.316 µM): 220 nM
- IC50 (second compound 1 µM): 214 nM
- IC50 (second compound 3.16 µM): 175 nM
- IC50 (second compound 10 µM): 104 nM
- viability, T/C (second compound 0.0316 µM, first compound 0.000999 µM): 104%
- viability, T/C (second compound 0.0316 µM, first compound 0.00316 µM): 83.1%
- viability, T/C (second compound 0.0316 µM, first compound 0.00999 µM): 97.8%
- viability, T/C (second compound 0.0316 µM, first compound 0.0316 µM): 90.5%
- viability, T/C (second compound 0.0316 µM, first compound 0.0999 µM): 75.8%
- viability, T/C (second compound 0.0316 µM, first compound 0.316 µM): 33.4%
- viability, T/C (second compound 0.1 µM, first compound 0.000999 µM): 108%
- viability, T/C (second compound 0.1 µM, first compound 0.00316 µM): 84.8%
- viability, T/C (second compound 0.1 µM, first compound 0.00999 µM): 103%
- viability, T/C (second compound 0.1 µM, first compound 0.0316 µM): 86.2%
- viability, T/C (second compound 0.1 µM, first compound 0.0999 µM): 73.2%
- viability, T/C (second compound 0.1 µM, first compound 0.316 µM): 30.8%
- viability, T/C (second compound 0.316 µM, first compound 0.000999 µM): 92.3%
- viability, T/C (second compound 0.316 µM, first compound 0.00316 µM): 88.4%
- viability, T/C (second compound 0.316 µM, first compound 0.00999 µM): 99.5%
- viability, T/C (second compound 0.316 µM, first compound 0.0316 µM): 88.9%
- viability, T/C (second compound 0.316 µM, first compound 0.0999 µM): 79.6%
- viability, T/C (second compound 0.316 µM, first compound 0.316 µM): 36.4%
- viability, T/C (second compound 1 µM, first compound 0.000999 µM): 84.8%
- viability, T/C (second compound 1 µM, first compound 0.00316 µM): 86.9%
- viability, T/C (second compound 1 µM, first compound 0.00999 µM): 88.3%
- viability, T/C (second compound 1 µM, first compound 0.0316 µM): 79%
- viability, T/C (second compound 1 µM, first compound 0.0999 µM): 71.9%
- viability, T/C (second compound 1 µM, first compound 0.316 µM): 38.9%
- viability, T/C (second compound 3.16 µM, first compound 0.000999 µM): 90.6%
- viability, T/C (second compound 3.16 µM, first compound 0.00316 µM): 86.9%
- viability, T/C (second compound 3.16 µM, first compound 0.00999 µM): 89%
- viability, T/C (second compound 3.16 µM, first compound 0.0316 µM): 79.5%
- viability, T/C (second compound 3.16 µM, first compound 0.0999 µM): 66.1%
- viability, T/C (second compound 3.16 µM, first compound 0.316 µM): 33.5%
- viability, T/C (second compound 10 µM, first compound 0.000999 µM): 77%
- viability, T/C (second compound 10 µM, first compound 0.00316 µM): 80.1%
- viability, T/C (second compound 10 µM, first compound 0.00999 µM): 80.6%
- viability, T/C (second compound 10 µM, first compound 0.0316 µM): 70.4%
- viability, T/C (second compound 10 µM, first compound 0.0999 µM): 51.2%
- viability, T/C (second compound 10 µM, first compound 0.316 µM): 26.4%
